ChEMBL document CHEMBL1121778, “5,7-Dihydroxy-2-aminotetralin derivatives: synthesis and assessment of dopaminergic and adrenergic actions” (1981)
Calls of active or inactive are those of the source. The calls are words filed in the database; no cut-off is given here.

Experiments:
Canis familiaris [1] = experiment: Compound was tested for increase in renal blood flow in dog anesthetized with sodium pentobarbitol (30 mg/kg, iv) and systemic blood pressure and heart rate were recorded; Inactive at 2 umol/kg; type: functional, organism-based; details: Canis lupus familiaris
Felis catus [2] = experiment: Percentage change in arterial pressure of the cat on intravenous administration of 0.009 umol/kg of the compound.; type: functional, Artery
Felis catus [3] = experiment: Percentage change in arterial pressure of the cat on intravenous administration of 0.003 umol/kg of the compound.; type: functional, Artery
Felis catus [4] = organism: Felis catus; experiment: Potency relative to apomorphine.; type: functional
Felis catus [5] = organism: Felis catus; experiment: Compound was tested for the inhibition of cat cardioaccelerator nerve stimulation, activity expressed as ED50.; type: functional
Felis catus [6] = experiment: Change in heart rate(beats/min) of the cat on intravenous administration of 0.003 umol/kg of the compound.; type: functional
Felis catus [7] = experiment: Change in heart rate(beats/min) of the cat on intravenous administration of 0.033 umol/kg of the compound.; type: functional
Felis catus [8] = experiment: Change in heart rate(beats/min) of the cat on intravenous administration of 0.009 umol/kg of the compound.; type: functional
Felis catus [9] = experiment: Percentage change in arterial pressure of the cat on intravenous administration of 0.033 umol/kg of the compound.; type: functional, Artery
Felis catus [10] = organism: Felis catus; experiment: Compound was tested for the inhibition of cat cardioaccelerator nerve stimulation; type: functional
Felis catus [11] = experiment: Percentage change in arterial pressure of the cat on intravenous administration at 0.008 umol/kg; type: functional, Artery
Felis catus [12] = experiment: Percentage change in arterial pressure of the cat on intravenous administration of 0.032 umol/kg of the compound.; type: functional, Artery
Felis catus [13] = experiment: Change in heart rate(beats/min) of the cat on intravenous administration at 0.008 umol/kg; type: functional
Canis familiaris [14] = organism: Canis familiaris; experiment: Compound was tested for emesis(active expulsion of fluid or solid matter)in dog, activity expressed as ED50.; type: functional; details: Canis lupus familiaris
Felis catus [15] = experiment: Change in heart rate(beats/min) of the cat on intravenous administration of 0.016 umol/kg of the compound.; type: functional
Felis catus [16] = experiment: Percentage change in arterial pressure of the cat on intravenous administration of 0.016 umol/kg of the compound.; type: functional, Artery
Felis catus [17] = organism: Felis catus; experiment: Compound was tested for the inhibition of cat cardioaccelerator nerve stimulation,; type: functional
Felis catus [18] = experiment: change in heart rate(beats/min) of the cat on intravenous administration 0.038 umol/kg of the compound.; type: functional
Felis catus [19] = experiment: Compound was tested for the inhibition of cat cardioaccelerator nerve stimulation; Inactive at 2 umol/kg iv; type: functional, organism-based
Felis catus [20] = experiment: %change in arterial pressure of the cat on intravenous administration 0.115 umol/kg of the compound.; type: functional, Artery
Canis familiaris [21] = experiment: Compound was tested for emesis(active expulsion of fluid or solid matter)in dog at 2 umol/kg sc; No emesis produced; type: functional, organism-based; details: Canis lupus familiaris
Felis catus [22] = experiment: change in heart rate(beats/min) of the cat on intravenous administration of 0.115 umol/kg of the compound.; type: functional
Felis catus [23] = experiment: %change in arterial pressure of the cat on intravenous administration of 0.038 umol/kg the compound.; type: functional, Artery
Felis catus [24] = experiment: %change in arterial pressure of the cat on intravenous administration of 0.38 umol/kg of the compound.; type: functional, Artery
Felis catus [25] = experiment: change in heart rate(beats/min) of the cat on intravenous administration of 0.38 umol/kg of the compound.; type: functional
Felis catus [26] = experiment: Percentage change in arterial pressure of the cat on intravenous administration of 0.36 umol/kg of the compound.; type: functional, Artery
Felis catus [27] = experiment: Change in heart rate(beats/min) of the cat on intravenous administration of 0.36 umol/kg the compound.; type: functional
Felis catus [28] = experiment: Change in heart rate(beats/min) of the cat on intravenous administration of 1.09 umol/kg of the compound.; type: functional
Felis catus [29] = experiment: Percentage change in arterial pressure of the cat on intravenous administration of 1.09 umol/kg of uM/kg of the compound.; type: functional, Artery
Felis catus [30] = experiment: Change in heart rate(beats/min) of the cat on intravenous administration of 0.01 umol/kg of the compound.; type: functional
Canis familiaris [31] = organism: Canis familiaris; experiment: Compound was tested for emesis(active expulsion of fluid or solid matter)in dog; type: functional; details: Canis lupus familiaris
Felis catus [32] = experiment: Percentage change in arterial pressure of the cat on intravenous administration of 0.10 umol/kg of the compound.; type: functional, Artery
Felis catus [33] = experiment: Change in heart rate(beats/min) of the cat on intravenous administration of 0.10 umol/kg of the compound.; type: functional
Felis catus [34] = experiment: Percentage change in arterial pressure of the cat on intravenous administration of 0.01 umol/kg of the compound.; type: functional, Artery
Felis catus [35] = experiment: Percentage change in arterial pressure of the cat on intravenous administration of 0.33 umol/kg of the compound.; type: functional, Artery
Felis catus [36] = experiment: Change in heart rate(beats/min) of the cat on intravenous administration of 0.99 umol/kg of the compound.; type: functional
Felis catus [37] = experiment: Percentage change in arterial pressure of the cat on intravenous administration of 0.99 umol/kg of the compound.; type: functional, Artery
Felis catus [38] = experiment: Compound was tested for the inhibition of cat cardioaccelerator nerve stimulation; […]; type: functional, organism-based
Felis catus [39] = experiment: Change in heart rate(beats/min) of the cat on intravenous administration of 0.11 umol/kg of the compound.; type: functional
Felis catus [40] = experiment: Change in heart rate(beats/min) of the cat on intravenous administration of 0.33 umol/kg of the compound.; type: functional
Felis catus [41] = experiment: Percentage change in arterial pressure of the cat on intravenous administration of 0.11 umol/kg of the compound.; type: functional, Artery
Felis catus [42] = experiment: Change in heart rate(beats/min) of the cat on intravenous administration of 0.03 umol/kg of the compound.; type: functional
Felis catus [43] = experiment: Percentage change in arterial pressure of the cat on intravenous administration of 0.03 umol/kg of the compound.; type: functional, Artery
Felis catus [44] = experiment: Change in heart rate(beats/min) of the cat on intravenous administration of 0.1 uM/kg of the compound.; type: functional
Felis catus [45] = experiment: Percentage change in arterial pressure of the cat on intravenous administration of 0.1 uM/kg of the compound.; type: functional, Artery

Br.CCCN(CCC)C1CCc2c(O)cc(O)cc2C1 (centres undefined)
Increase (Canis familiaris [1]): inactive | Change (Felis catus [2]): -17.2% | Change (Felis catus [3]): -12.2% | Relative potency (Felis catus [4]): 0.95 | ED50 (Felis catus [5]): 0.035 µmol/kg | Heart rate (Felis catus [6]): -3.6 beats min-1 | Heart rate (Felis catus [7]): -5.6 beats min-1 | Heart rate (Felis catus [8]): -4.8 beats min-1 | Change (Felis catus [9]): -27.2%

Br.CCN(CC)C1CCc2c(O)cc(O)cc2C1 (centres undefined)
Increase (Canis familiaris [1]): inactive | ED50 (Felis catus [10]): 0.024 µmol/kg | Change (Felis catus [2]): -23% | Change (Felis catus [3]): -8.7% | Relative potency (Felis catus [4]): 1.4 | Heart rate (Felis catus [6]): -2.1 beats min-1 | Heart rate (Felis catus [7]): -25 beats min-1 | Heart rate (Felis catus [8]): -23 beats min-1 | Change (Felis catus [9]): -25%

CN1CCc2cccc3c2[C@H]1Cc1ccc(O)c(O)c1-3 [APOMORPHINE]
Change (Felis catus [11]): -9.9% | Change (Felis catus [12]): -18.2% | Heart rate (Felis catus [13]): -4.3 beats min-1 | ED50 (Canis familiaris [14]): 0.142 µmol/kg | Heart rate (Felis catus [15]): -6.5 beats min-1 | Change (Felis catus [16]): -11.5% | Relative potency (Felis catus [4]): 1 | ED50 (Felis catus [17]): 0.022 µmol/kg

Br.NC1CCc2c(O)cc(O)cc2C1 (centres undefined)
Increase (Canis familiaris [1]): inactive | Heart rate (Felis catus [18]): 0 beats min-1 | ED50 (Felis catus [19]): inactive | Change (Felis catus [20]): 21.6% | ED50 (Canis familiaris [21]): No emesis produced | Heart rate (Felis catus [22]): 3.6 beats min-1 | Change (Felis catus [23]): 19.7% | Change (Felis catus [24]): 30.5% | Heart rate (Felis catus [25]): 17.6 beats min-1

Br.CNC1CCc2c(O)cc(O)cc2C1 (centres undefined)
Increase (Canis familiaris [1]): inactive | Change (Felis catus [26]): 49.7% | ED50 (Felis catus [19]): inactive | Heart rate (Felis catus [27]): 26.7 beats min-1 | Heart rate (Felis catus [28]): 44 beats min-1 | Change (Felis catus [29]): 84.2% | ED50 (Canis familiaris [21]): No emesis produced

Br.CCNC1CCc2c(O)cc(O)cc2C1 (centres undefined)
Increase (Canis familiaris [1]): inactive | ED50 (Felis catus [10]): 0.04 µmol/kg | Heart rate (Felis catus [30]): -6.6 beats min-1 | ED50 (Canis familiaris [31]): 0.36 µmol/kg | Relative potency (Felis catus [4]): 1.04 | Change (Felis catus [32]): -19.6% | Heart rate (Felis catus [33]): -6 beats min-1 | Heart rate (Felis catus [7]): -10.6 beats min-1 | Change (Felis catus [9]): -18.5% | Change (Felis catus [34]): -6.3%

Br.CC(C)NC1CCc2c(O)cc(O)cc2C1 (centres undefined)
Increase (Canis familiaris [1]): inactive | Change (Felis catus [35]): 19.7% | Heart rate (Felis catus [36]): 14.4 beats min-1 | Change (Felis catus [37]): 25.2% | ED50 (Felis catus [38]): inactive | Heart rate (Felis catus [39]): 3.2 beats min-1 | ED50 (Canis familiaris [21]): inactive | Heart rate (Felis catus [40]): 7.7 beats min-1 | Change (Felis catus [41]): 16.9%

Br.CN(C)C1CCc2c(O)cc(O)cc2C1 (centres undefined)
Heart rate (Felis catus [42]): 0.6 beats min-1 | Change (Felis catus [43]): 8% | ED50 (Felis catus [10]): 0.021 µmol/kg | Heart rate (Felis catus [30]): 0 beats min-1 | Relative potency (Felis catus [4]): 1.45 | Heart rate (Felis catus [44]): 12.8 beats min-1 | Change (Felis catus [45]): 23.2% | Change (Felis catus [34]): 4.1%
